The test system of assay [1] is RSV Long strain (ATCC VR-26). As to the kind of experiment: Viral cytopathic effect (CPE) assay. In kind it is cell-based. The following applies: human respiratory syncytial virus, 120 h, cell viability after 5 days (Cell Counting kit-8). As to the method:
EC50: the concentration of a compound where 50% of its maximal protection effect against viral induced CPE is observed LongStrain: a subtype RSV strain obtained from ATCC with catalog number VR-26 To measure anti-RSV activity of compounds, 96-well plates were seeded with 6×10^3 cells per well in Dulbecco's modified Eagle's medium (DMEM) containing 10% fetal bovine serum (FBS). Cells were infected the next day with sufficient RSV Long strain (ATCC) to produce an approximately 80-90% cytopathic effect after 5 days, in the presence of serial half-log diluted compound in a total volume of 200 μL per well. The viability of cells is assessed after 5 days using Cell Counting kit-8 (Dojindo Molecular Technologies). The absorbance at 450 nm and referenced at 630 nm is measured to determine 50% effective concentration (EC50).
A general note: Cytopathic effects are the visible damage that an infection or toxin causes in cultured cells.

The next assay has as its system RSV. The note with it: two separate Phase III clinical trials, selected high-risk infants, prophylactic use; cited from earlier work.

For the molecule `COc1cc(-c2noc(-c3cn(-c4ccccc4Br)c(C)n3)n2)cc(OC)c1OC` [Example 1-1, 5-(1-(2-Bromophenyl)-2-methyl-1H-imidazol-4-yl)-3-(3,4,5-trimethoxyphenyl)-1,2,4-oxadiazole], the response in assay [1] was half-maximal at 0.78 µM (EC50).
Consider `COc1cc(-c2noc(-c3ncn(-c4ccccc4Br)c3C)n2)cc(OC)c1OC` [Example 1-2, 5-[1-(2-Bromo-phenyl)-5-methyl-1H-imidazol-4-yl]-3-(3,4,5-trimethoxy-phenyl)-[1,2,4]oxadiazole], for which a half-maximal effect in assay [1] (EC50) was put at 0.6 µM. This EC50 and that of the molecule before are within 1.5-fold of each other.
As to `COc1cc(-c2noc(-c3nc(C)n(-c4ccccc4Br)c3C)n2)cc(OC)c1OC` [Example 1-3, 5-(1-(2-Bromophenyl)-2,5-dimethyl-1H-imidazol-4-yl)-3-(3,4,5-trimethoxyphenyl)-1,2,4-oxadiazole], the EC50 – broadly, the concentration needed to bring the measured effect to its halfway point – in assay [1] amounted to 0.5 µM.
The molecule `COC(=O)c1ccc(-c2noc(-c3nc(C)n(-c4ccccc4Cl)c3C)n2)cc1` [Example 1-4, 4-{5-[1-(2-Chloro-phenyl)-2,5-dimethyl-1H-imidazol-4-yl]-[1,2,4]oxadiazol-3-yl}-benzoic acid methyl ester] gave a concentration for a half-maximal effect (EC50) in assay [1] of 4.06 µM.
With `COc1cc(-c2noc(-c3ncn(-c4c(C)cccc4C)c3C)n2)cc(OC)c1OC` [Example 1-6, 5-(1-(2,6-Dimethylphenyl)-5-methyl-1H-imidazol-4-yl)-3-(3,4,5-trimethoxyphenyl)-1,2,4-oxadiazole], the EC50 in assay [1] was found to be 0.51 µM.
The molecule `COc1ccc(OC)c(-c2noc(-c3nc(C)n(-c4ccccc4Br)c3C)n2)c1` [Example 1-7, 5-[1-(2-Bromo-phenyl)-2,5-dimethyl-1H-imidazol-4-yl]-3-(2,5-dimethoxy-phenyl)-[1,2,4]oxadiazole] returned an EC50 in assay [1] of 0.68 µM.
Same read-out and setting: to `COc1ccc(-c2noc(-c3ncn(-c4c(C)cccc4Cl)c3C)n2)c(OC)c1` [Example 1-8, 5-[1-(2-Chloro-6-methyl-phenyl)-5-dimethyl-1H-imidazol-4-yl]-3-(2,4-dimethoxy-phenyl)-[1,2,4]oxadiazole] belongs 0.193 µM.
As for `COc1cc(-c2noc(-c3ncn(-c4c(C)cccc4Cl)c3C)n2)cc(OC)c1OC` [Example 1-9, 5-[1-(2-Chloro-6-methyl-phenyl)-5-methyl-imidazol-4-yl]-3-(3,4,5-trimethoxyphenyl)-1,2,4-oxadiazole], a half-maximal effect in assay [1] (EC50) was put at 0.22 µM.
Molecule `COc1ccc(-c2noc(-c3ncn(-c4c(C)cccc4C)c3C)n2)cc1` [Example 1-10, 5-(1-(2,6-Dimethylphenyl)-5-methyl-1H-imidazol-4-yl)-3-(4-methoxyphenyl)-1,2,4-oxadiazol] returned an EC50 in assay [1] of 2.4 µM.
`COc1ccc(-c2noc(-c3nc(C)n(-c4ccccc4Cl)c3C)n2)cc1` [Example 1-11, 5-[1-(2-Chloro-phenyl)-2,5-dimethyl-1H-imidazol-4-yl]-3-(4-methoxy-phenyl)-[1,2,4]oxadiazole] came in with a half-maximal effective concentration (EC50) in assay [1] of 5.07 µM. This EC50 lies about 2.1-fold higher than the previous one.
In assay [1], `COc1ccc(-c2noc(-c3ncn(-c4c(C)cccc4C)c3C)n2)c(OC)c1` [Example 1-12, 3-(2,4-Dimethoxy-phenyl)-5-[1-(2,6-dimethyl-phenyl)-5-methyl-1H-imidazol-4-yl]-[1,2,4]oxadiazole] showed an EC50 of 0.362 µM.
On the same count and under the same terms, the figure for `COC(=O)c1ccc(-c2noc(-c3nc(C)n(-c4ccccc4Cl)c3C)n2)cc1OC` [Example 1-13, 4-{5-[1-(2-Chloro-phenyl)-2,5-dimethyl-1H-imidazol-4-yl]-[1,2,4]oxadiazol-3-yl}-2-methoxy-benzoic acid methyl ester] is 2.38 µM.
As to `COc1ccccc1-c1noc(-c2nc(C)n(-c3ccccc3Cl)c2C)n1` [Example 1-14, 5-[1-(2-Chloro-phenyl)-2,5-dimethyl-1H-imidazol-4-yl]-3-(2-methoxy-phenyl)-[1,2,4]oxadiazole], the response in assay [1] was half-maximal at 0.68 µM (EC50).
In assay [1], `COc1ccc(-c2noc(-c3ncn(-c4c(C)cccc4Cl)c3C)n2)cc1` [Example 1-15, 5-[1-(2-Chloro-6-methyl-phenyl)-5-methyl-1H-imidazol-4-yl]-3-(4-methoxy-phenyl)-[1,2,4]oxadiazole] gave an EC50 of 1.74 µM.
For the molecule `COc1ccc(-c2noc(-c3nc(C)n(-c4ccccc4Cl)c3C)n2)c(OC)c1` [Example 1-16, 5-[1-(2-Chloro-phenyl)-2,5-dimethyl-1H-imidazol-4-yl]-3-(2,4-dimethoxy-phenyl)-[1,2,4]oxadiazole], in assay [1], it took 1.47 µM to reach a half-maximal effect (EC50). This EC50 and that of the molecule before are within 1.5-fold of each other.
Molecule `COc1ccc(OC)c(-c2noc(-c3nc(C)n(-c4ccccc4Cl)c3C)n2)c1` [Example 1-17, 5-(1-(2-chlorophenyl)-2,5-dimethyl-1H-imidazol-4-yl)-3-(2,5-dimethoxy-phenyl)-1,2,4-oxadiazole] had an EC50 in assay [1] of 1.81 µM.
As for `COc1cc(-c2noc(-c3nc(C)n(-c4ccccc4Cl)c3C)n2)cc(OC)c1OC` [Example 1-18, 5-[1-(2-Chloro-phenyl)-2,5-dimethyl-1H-imidazol-4-yl]-3-(3,4,5-trimethoxy-phenyl)-[1,2,4]oxadiazole], in assay [1], the EC50 worked out at 1.59 µM.
Molecule `COC(=O)c1ccc(-c2noc(-c3nc(C)n(-c4ccccc4Cl)c3C)n2)c(OC)c1` [Example 1-19, 4-{5-[1-(2-Chloro-phenyl)-2,5-dimethyl-1H-imidazol-4-yl]-[1,2,4]oxadiazol-3-yl}-3-methoxy-benzoic acid methyl ester] gave an EC50 in assay [1] of 0.92 µM.
Turning to `COc1ccc(-c2noc(-c3nc(C)n(-c4ccccc4Cl)c3C)n2)c(F)c1` [Example 1-20, 5-[1-(2-Chloro-phenyl)-2,5-dimethyl-1H-imidazol-4-yl]-3-(2-fluoro-4-methoxy-phenyl)-[1,2,4]oxadiazole], in assay [1], a half-maximal effect (EC50) was put at 2.99 µM. This EC50 lies about 3.2-fold higher than the previous one.
On to `COC(=O)c1ccc(-c2noc(-c3nc(C)n(-c4ccccc4Cl)c3C)n2)cc1C` [Example 1-21, 4-{5-[1-(2-Chloro-phenyl)-2,5-dimethyl-1H-imidazol-4-yl]-[1,2,4]oxadiazol-3-yl}-2-methyl-benzoic acid methyl ester], for which, in assay [1], the EC50 is 5.31 µM.
On to `COc1cccc(-c2noc(-c3nc(C)n(-c4ccccc4Cl)c3C)n2)c1` [Example 1-22, 5-[1-(2-Chloro-phenyl)-2,5-dimethyl-1H-imidazol-4-yl]-3-(3-methoxy-phenyl)-[1,2,4]oxadiazole], for which the EC50 in assay [1] was 5.96 µM.
Same read-out and setting: the figure for `COc1ccccc1-n1c(C)nc(-c2nc(-c3cc(OC)c(OC)c(OC)c3)no2)c1C` [Example 1-23, 5-[1-(2-Methoxy-phenyl)-2,5-dimethyl-1H-imidazol-4-yl]-3-(3,4,5-trimethoxy-phenyl)-[1,2,4]oxadiazole] is 2.08 µM; for `COc1cc(-c2noc(-c3nc(Br)n(-c4ccccc4Cl)c3C)n2)cc(OC)c1OC` [Example 1-24, 5-[2-Bromo-1-(2-chloro-phenyl)-5-methyl-1H-imidazol-4-yl]-3-(3,4,5-trimethoxy-phenyl)-[1,2,4]oxadiazole] it is 0.78 µM.
`COc1cc(-c2noc(-c3ncc(-c4ccccc4Cl)n3C)n2)cc(OC)c1OC` [Example 1-25, 5-[5-(2-Chlorophenyl)-1-methyl-imidazol-2-yl]-3-(3,4,5-trimethoxyphenyl)-1,2,4-oxadiazole]: in assay [1], the concentration for a half-maximal effect (EC50) worked out at 1.28 µM.
On to `COc1cc(-c2noc(-c3cnc(-c4ccccc4Cl)n3C)n2)cc(OC)c1OC` [Example 1-26, 5-[2-(2-Chlorophenyl)-3-methyl-imidazol-4-yl]-3-(3,4,5-trimethoxyphenyl)-1,2,4-oxadiazole], for which it took 2.03 µM to reach a half-maximal effect in assay [1] (EC50). Compared with the last molecule, the EC50 is about 1.6-fold higher.
`COc1cc(C(=O)O)ccc1-c1noc(-c2ncn(-c3c(C)cccc3Cl)c2C)n1` [Example 2-1, 4-[5-[1-(2-Chloro-6-methyl-phenyl)-5-methyl-imidazol-4-yl]-1,2,4-oxadiazol-3-yl]-3-methoxy-benzoic acid] displayed a concentration giving a half-maximal response (EC50) in assay [1] of 1.85 µM.
The same measure, in the same setting: to `Cc1nc(-c2nc(-c3ccc(C(=O)O)cc3)no2)c(C)n1-c1ccccc1Cl` [Example 2-2, 4-{5-[1-(2-Chloro-phenyl)-2,5-dimethyl-1H-imidazol-4-yl]-[1,2,4]oxadiazol-3-yl}-benzoic acid] belongs 3.08 µM.
Consider `COc1cc(C(=O)O)ccc1-c1noc(-c2ncn(-c3c(C)cccc3C)c2C)n1` [Example 2-3, 4-{5-[1-(2,6-Dimethyl-phenyl)-5-methyl-1H-imidazol-4-yl]-[1,2,4]oxadiazol-3-yl}-3-methoxy-benzoic acid], for which, in assay [1], it took 1.97 µM to reach a half-maximal effect (EC50).
`COc1cc(-c2noc(-c3ncn(-c4c(C)cccc4C)c3C)n2)ccc1C(=O)O` [Example 2-4, 4-{5-[1-(2,6-Dimethyl-phenyl)-5-methyl-1H-imidazol-4-yl]-[1,2,4]oxadiazol-3-yl}-2-methoxy-benzoic acid]: the EC50 in assay [1] worked out at 0.76 µM. Against the preceding molecule, the EC50 is about 2.6-fold lower.
Take `COc1cc(-c2noc(-c3ncn(-c4c(C)cccc4Cl)c3C)n2)ccc1C(=O)O` [Example 2-5, 4-{5-[1-(2-Chloro-6-methyl-phenyl)-5-methyl-1H-imidazol-4-yl]-[1,2,4]oxadiazol-3-yl}-2-methoxy-benzoic acid]: in assay [1], the half-maximal effective concentration (EC50) is 0.59 µM.
In the case of `COc1cc(-c2noc(-c3nc(CO)n(-c4ccccc4Cl)c3C)n2)cc(OC)c1OC` [Example 3-1, (1-(2-Chlorophenyl)-5-methyl-4-(3-(3,4,5-trimethoxyphenyl)-1,2,4-oxadiazol-5-yl)-1H-imidazol-2-yl)methanol], a half-maximal response in assay [1] (EC50) required 1.79 µM.
In the case of `COc1cc(-c2noc(-c3nc(C(=O)O)n(-c4ccccc4Cl)c3C)n2)cc(OC)c1OC` [Example 3-2, 1-(2-Chlorophenyl)-5-methyl-4-(3-(3,4,5-trimethoxyphenyl)-1,2,4-oxadiazol-5-yl)-1H-imidazole-2-carboxylic acid], in assay [1], the response was half-maximal at 4.05 µM (EC50).
As to “palivizumab: palivizumab (Synagis, MedImmune), approved for prophylactic use in selected high-risk infants”, the “reduction in hospitalization rate” value in the assay with RSV is recorded as 45-55%.

(Values after US9790213B2, “Imidazoles for the treatment and prophylaxis of respiratory syncytial virus infection” (Hoffmann-La Roche Inc., priority 2015, dated 2017).)
